Measured values taken from PubChem BioAssay AID256 (DTP/NCI, 2004).
Toxic doses and inconclusive results are not listed. The calls were made as follows: active = survival T/C of 150% or more; inactive = T/C below 125% in these data.

System: CD2F1 mice, L1210 leukemia ip, survival T/C
Assay: NCI In Vivo Anticancer Drug Screen. Data for tumor model L1210 Leukemia (intraperitoneal) in CD2F1 (CDF1) mice
Conditions: higher = longer survival
How it was run: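 Vehicle-treated tumor-bearing mice served as controls (C) for compound-treated mice (T). Reported figure is T divided by C.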

[1] = endpoint: mean survival time, dose: 12.5 mg/kg/injection, schedule: Q01DX009 (ip), vehicle: saline with Tween-80
[2] = endpoint: mean survival time, dose: 25.0 mg/kg/injection, schedule: Q01DX009 (ip), vehicle: saline with Tween-80
[3] = endpoint: mean survival time, dose: 50.0 mg/kg/injection, schedule: Q01DX009 (ip), vehicle: saline with Tween-80
[4] = endpoint: mean survival time, dose: 100.0 mg/kg/injection, schedule: Q01DX009 (ip), vehicle: saline with Tween-80
[5] = endpoint: mean survival time, dose: 200.0 mg/kg/injection, schedule: Q01DX009 (ip), vehicle: saline with Tween-80
[6] = endpoint: mean survival time, dose: 100.0 mg/kg/injection, schedule: Q04DX003 (ip), vehicle: saline with Tween-80
[7] = endpoint: mean survival time, dose: 200.0 mg/kg/injection, schedule: Q04DX003 (ip), vehicle: saline with Tween-80
[8] = endpoint: mean survival time, dose: 400.0 mg/kg/injection, schedule: Q01DX009 (ip), vehicle: saline with Tween-80
[9] = endpoint: mean survival time, dose: 400.0 mg/kg/injection, schedule: Q04DX003 (ip), vehicle: saline with Tween-80
[10] = endpoint: mean survival time, dose: 100.0 mg/kg/injection, schedule: Q01DX001 (ip), vehicle: saline
[11] = endpoint: mean survival time, dose: 200.0 mg/kg/injection, schedule: Q01DX001 (ip), vehicle: saline
[12] = endpoint: mean survival time, dose: 400.0 mg/kg/injection, schedule: Q01DX001 (ip), vehicle: saline
[13] = endpoint: mean survival time, dose: 25.0 mg/kg/injection, schedule: Q04DX003 (ip), vehicle: saline
[14] = endpoint: mean survival time, dose: 50.0 mg/kg/injection, schedule: Q04DX003 (ip), vehicle: saline
[15] = endpoint: mean survival time, dose: 100.0 mg/kg/injection, schedule: Q04DX003 (ip), vehicle: saline
[16] = endpoint: mean survival time, dose: 200.0 mg/kg/injection, schedule: Q04DX003 (ip), vehicle: saline

Measured: T/C

O=c1cc(Nc2ccc(Br)cc2)[nH]c(=O)[nH]1
inactive: endpoint: mean survival time, dose: 100.0 mg/kg/injection, schedule: Q01DX001 (ip), vehicle: other 92 % of control | endpoint: mean survival time, dose: 200.0 mg/kg/injection, schedule: Q01DX001 (ip), vehicle: other 92 % of control

C1CC[N-]CC1.C1CC[N-]CC1.[Cl][Rh]([Cl])[Cl]
inactive: [1] 90 % of control | [2] 98 % of control | [3] 100 % of control | [4] 94 % of control | [5] 96 % of control

CCOc1nc(OCC)nc(-c2cccn2-c2ccccc2)n1
inactive: [4] 95 % of control | [6] 106 % of control | [5] 87 % of control | [7] 100 % of control | [8] 93 % of control | [9] 98 % of control

Cc1ccc2cc3c(ccc4ccccc43)c3c2c1CC3
inactive: [3] 93 % of control | [4] 110 % of control | [5] 97 % of control | [8] 100 % of control

CN(C)C(=O)NCCN(CCNC(=O)N(C)C)C(=O)N(C)C
inactive: [6] 98 % of control | [7] 96 % of control | [9] 94 % of control

NC(CC(=O)c1ccccc1)C(=O)O (stereo unspecified)
inactive: [10] 98 % of control | [11] 93 % of control | [12] 90 % of control

CCOC(=O)CCOc1ccc(Cl)cc1
inactive: [4] 95 % of control | [6] 89 % of control | [5] 97 % of control | [7] 93 % of control | [8] 104 % of control | [9] 91 % of control

NC(=O)N/N=C\c1ccc(O)cn1
inactive: [4] 93 % of control | [5] 93 % of control | [8] 92 % of control

COC(=O)c1ccoc1
inactive: endpoint: median survival time, dose: 12.5 mg/kg/injection, schedule: Q01DX009 (ip), vehicle: saline 98 % of control | endpoint: median survival time, dose: 25.0 mg/kg/injection, schedule: Q01DX009 (ip), vehicle: saline 100 % of control | endpoint: median survival time, dose: 50.0 mg/kg/injection, schedule: Q01DX009 (ip), vehicle: saline 100 % of control | endpoint: median survival time, dose: 100.0 mg/kg/injection, schedule: Q01DX009 (ip), vehicle: saline 104 % of control | endpoint: median survival time, dose: 200.0 mg/kg/injection, schedule: Q01DX009 (ip), vehicle: saline 105 % of control | endpoint: median survival time, dose: 400.0 mg/kg/injection, schedule: Q01DX009 (ip), vehicle: saline 114 % of control

Cc1ccc(S(=O)(=O)c2ccccc2)cc1
inactive: endpoint: mean survival time, dose: 100.0 mg/kg/injection, schedule: Q01DX009 (ip), vehicle: saline 88 % of control | endpoint: mean survival time, dose: 200.0 mg/kg/injection, schedule: Q01DX009 (ip), vehicle: saline 87 % of control | endpoint: mean survival time, dose: 400.0 mg/kg/injection, schedule: Q01DX009 (ip), vehicle: saline 92 % of control

O=C1CCCC1CC1CCCC1=O (stereo unspecified)
inactive: [4] 102 % of control | [5] 106 % of control | [8] 106 % of control

NCCCCC(N)C(=O)O (stereo unspecified)
inactive: endpoint: median survival time, dose: 3.13 mg/kg/injection, schedule: Q04DX002 (ip), vehicle: saline 100 % of control | endpoint: median survival time, dose: 6.25 mg/kg/injection, schedule: Q04DX002 (ip), vehicle: saline 94 % of control | endpoint: median survival time, dose: 25.0 mg/kg/injection, schedule: Q04DX002 (ip), vehicle: saline 105 % of control | endpoint: median survival time, dose: 50.0 mg/kg/injection, schedule: Q04DX002 (ip), vehicle: saline 117 % of control

CCCn1c2cc([N+](=O)[O-])ccc2c(=O)c2ccc3ccccc3c21
inactive: [3] 97 % of control | [4] 104 % of control | [5] 101 % of control

CCCCCCCCCCCCSS(=O)(=O)c1ccc(C)cc1
inactive: endpoint: mean survival time, dose: 100.0 mg/kg/injection, schedule: Q04DX003 (ip), vehicle: other 95 % of control | endpoint: mean survival time, dose: 200.0 mg/kg/injection, schedule: Q04DX003 (ip), vehicle: other 95 % of control | endpoint: mean survival time, dose: 400.0 mg/kg/injection, schedule: Q04DX003 (ip), vehicle: other 95 % of control

CN(C)Cc1cccc(CN(C)C)c1O
inactive: [10] 106 % of control

N=c1c2ncn(C3OC(CO)C(O)C3O)c2ncn1N (stereo unspecified)
inactive: endpoint: mean survival time, dose: 50.0 mg/kg/injection, schedule: Q01DX005 (ip), vehicle: water 101 % of control | endpoint: mean survival time, dose: 100.0 mg/kg/injection, schedule: Q01DX005 (ip), vehicle: water 101 % of control | endpoint: mean survival time, dose: 200.0 mg/kg/injection, schedule: Q01DX005 (ip), vehicle: water 114 % of control

CC(=O)OCC1OC(OC(C)=O)C(NC(=O)C[NH-])C(OC(C)=O)C1OC(C)=O.CC(=O)OCC1OC(OC(C)=O)C(NC(=O)C[NH-])C(OC(C)=O)C1OC(C)=O.[Cl][Pt+2][Cl] (stereo unspecified)
inactive: endpoint: mean survival time, dose: 12.5 mg/kg/injection, schedule: Q04DX003 (ip), vehicle: saline 96 % of control | [13] 98 % of control | [14] 98 % of control | [15] 106 % of control | [16] 98 % of control

OC(c1ccccc1)(c1ccccc1)c1ccncc1
inactive: [1] 91 % of control | [2] 87 % of control | [3] 91 % of control

O=S(=O)(C(Br)CBr)C(Br)CBr (stereo unspecified)
inactive: [6] 95 % of control

CN(CC(=O)C(C)(C)C)c1ccccc1
inactive: [15] 103 % of control | [16] 97 % of control | endpoint: mean survival time, dose: 400.0 mg/kg/injection, schedule: Q04DX003 (ip), vehicle: saline 103 % of control

CCN(CC)CC(=O)Nc1cccc2c1C(=O)c1c(c(O)c3ccccc3c1O)C2=O
inactive: endpoint: mean survival time, dose: 6.0 mg/kg/injection, schedule: Q04DX003 (ip), vehicle: saline with Tween-80 94 % of control | endpoint: mean survival time, dose: 12.0 mg/kg/injection, schedule: Q04DX003 (ip), vehicle: saline with Tween-80 100 % of control | endpoint: mean survival time, dose: 24.0 mg/kg/injection, schedule: Q04DX003 (ip), vehicle: saline with Tween-80 96 % of control | endpoint: mean survival time, dose: 48.0 mg/kg/injection, schedule: Q04DX003 (ip), vehicle: saline with Tween-80 98 % of control

O=C1C[C@H]2[C@H](CO)[C@@H](OC(=O)c3ccc(-c4ccccc4)cc3)C[C@H]2O1
inactive: endpoint: mean survival time, dose: 100.0 mg/kg/injection, schedule: Q01DX001 (ip), vehicle: alcohol 94 % of control | endpoint: mean survival time, dose: 200.0 mg/kg/injection, schedule: Q01DX001 (ip), vehicle: alcohol 88 % of control | endpoint: mean survival time, dose: 400.0 mg/kg/injection, schedule: Q01DX001 (ip), vehicle: alcohol 92 % of control

Cc1ccc(S(=O)(=O)OCC(OS(=O)(=O)c2ccc(C)cc2)C2OC(c3ccccc3)OC2C2COC(c3ccccc3)O2)cc1 (stereo unspecified)
inactive: [4] 95 % of control | [5] 95 % of control | [8] 95 % of control

O=S(=O)(O)c1ccc(-c2c3nc(c(-c4ccc(S(=O)(=O)O)cc4)c4ccc([nH]4)c(-c4ccc(S(=O)(=O)O)cc4)c4nc(c(-c5ccc(S(=O)(=O)O)cc5)c5ccc2[nH]5)C=C4)C=C3)cc1
inactive: [10] 108 % of control | [11] 108 % of control | [12] 113 % of control

Clc1nc2n[nH]nc2nc1Cl
inactive: endpoint: mean survival time, dose: 3.13 mg/kg/injection, schedule: Q01DX009 (ip), vehicle: saline 97 % of control | endpoint: mean survival time, dose: 6.25 mg/kg/injection, schedule: Q01DX009 (ip), vehicle: saline 100 % of control | endpoint: mean survival time, dose: 12.5 mg/kg/injection, schedule: Q01DX009 (ip), vehicle: saline 95 % of control

CC#CC(=O)SCCNC(=O)CCNC(C)=O
inactive: [1] 112 % of control | [2] 102 % of control | [13] 105 % of control | [3] 108 % of control | [14] 112 % of control | [4] 119 % of control | [15] 103 % of control

CC1CCOC1=O (stereo unspecified)
inactive: endpoint: mean survival time, dose: 50.0 mg/kg/injection, schedule: Q04DX002 (ip), vehicle: saline 98 % of control | endpoint: mean survival time, dose: 100.0 mg/kg/injection, schedule: Q04DX002 (ip), vehicle: saline 98 % of control | endpoint: mean survival time, dose: 200.0 mg/kg/injection, schedule: Q04DX002 (ip), vehicle: saline 102 % of control
